{
  "source": "patent US20090130229A1",
  "about": "“Antitumor uses of compound” (Cell Therapeutics, Inc., priority 2002, published 2009)",
  "key": {"Ret/MEN2B(M918T)": {"target": "T1, Ret/MEN2B(M918T) (Homo sapiens, UniProt P07949, M918T)", "T1 construct": "endogenous in cells; host or cells: MZ-CRC-1 (human medullary thyroid carcinoma)", "T1 sequence (P07949 29-1114 M918T)": "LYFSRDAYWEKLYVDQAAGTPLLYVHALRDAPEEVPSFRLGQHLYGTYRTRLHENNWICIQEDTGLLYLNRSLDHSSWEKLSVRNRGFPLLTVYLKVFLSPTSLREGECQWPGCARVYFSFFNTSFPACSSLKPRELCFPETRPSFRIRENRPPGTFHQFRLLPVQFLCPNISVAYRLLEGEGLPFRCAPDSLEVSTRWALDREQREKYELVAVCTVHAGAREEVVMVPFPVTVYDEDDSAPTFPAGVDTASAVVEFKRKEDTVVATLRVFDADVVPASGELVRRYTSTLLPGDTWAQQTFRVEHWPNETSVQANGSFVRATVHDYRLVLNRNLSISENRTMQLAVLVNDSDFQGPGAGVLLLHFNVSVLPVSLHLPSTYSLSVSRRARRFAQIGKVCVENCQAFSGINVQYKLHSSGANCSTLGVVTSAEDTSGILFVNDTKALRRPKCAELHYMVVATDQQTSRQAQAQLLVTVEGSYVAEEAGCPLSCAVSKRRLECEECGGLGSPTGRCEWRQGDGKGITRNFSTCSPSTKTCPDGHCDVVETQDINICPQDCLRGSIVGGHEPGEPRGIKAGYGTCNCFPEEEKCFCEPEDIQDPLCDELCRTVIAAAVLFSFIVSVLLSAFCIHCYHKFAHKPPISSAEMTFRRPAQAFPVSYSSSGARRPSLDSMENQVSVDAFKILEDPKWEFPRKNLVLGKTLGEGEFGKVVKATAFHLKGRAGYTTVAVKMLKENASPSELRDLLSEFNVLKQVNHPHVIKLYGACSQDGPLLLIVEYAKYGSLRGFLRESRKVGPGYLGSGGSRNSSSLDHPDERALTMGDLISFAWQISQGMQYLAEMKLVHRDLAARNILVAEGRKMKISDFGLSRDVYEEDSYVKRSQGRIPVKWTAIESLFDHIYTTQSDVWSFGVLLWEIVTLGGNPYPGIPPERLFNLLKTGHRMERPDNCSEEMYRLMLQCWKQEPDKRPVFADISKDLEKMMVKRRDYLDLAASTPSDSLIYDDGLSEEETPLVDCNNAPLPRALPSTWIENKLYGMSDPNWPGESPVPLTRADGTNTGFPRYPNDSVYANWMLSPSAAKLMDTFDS", "test": "Ret autophosphorylation and expression in MZ-CRC-1 cells (Western blotting)", "format": "cell-based", "settings": "24 h", "protocol": "FIG. 2. Effects of Cpd1 on human MTC cell lines harboring MEN2-associated RET mutants. A) Inhibition of Ret autophosphorylation. TT and MZ-CRC-1 cells, expressing respectively RET/MEN2A(C634W) and RET/MEN2B(M918T), were treated with the indicated concentrations of Cpd1, for 24 h. Control cells (C) received the solvent. Whole cell extracts were processed for Western blotting and probed with anti-pTyr and anti-Ret antibodies. […] B) Antiproliferative effect. TT and MZ-CRC-1 cells were treated with increasing concentrations of Cpd 1 for 7 days and then counted with a Coulter Counter.\n(§1) The following human medullary thyroid carcinoma (MTC) cell lines were used in this study. The TT cell line derived from a MEN2A-associated MTC characterized by expression of the RET oncogene carrying the mutation C634W. […]\nFor whole-cell extract preparation, cells were lysed in sodium dodecyl sulfate (SDS) sample buffer (62.5 mM Tris-HCl (pH 6.8), 2% SDS) with 1 mM PMSF, 10 μg/ml pepstatin, 12.5 μg/ml leupeptin, 100 KIU aprotinin, 1 mM sodium orthovanadate, 1 mM sodium molybdate. Protein concentration was determined in appropriately diluted aliquots by the bicinchionic acid (BCA) method (Pierce, Rockford, Ill.), then samples were adjusted to a final concentration of 10% glycerol, 5% β-mercaptoethanol, 0.001% bromophenol blue. […]"}, "FGF-R3 mutant Y373C": {"target": "T2, FGF-R3 mutant Y373C (Homo sapiens, UniProt P22607, Y373C)", "T2 construct": "expressed in transfected cells; host or cells: NIH3T3 (mouse fibroblasts)", "T2 sequence (P22607 23-806 Y373C)": "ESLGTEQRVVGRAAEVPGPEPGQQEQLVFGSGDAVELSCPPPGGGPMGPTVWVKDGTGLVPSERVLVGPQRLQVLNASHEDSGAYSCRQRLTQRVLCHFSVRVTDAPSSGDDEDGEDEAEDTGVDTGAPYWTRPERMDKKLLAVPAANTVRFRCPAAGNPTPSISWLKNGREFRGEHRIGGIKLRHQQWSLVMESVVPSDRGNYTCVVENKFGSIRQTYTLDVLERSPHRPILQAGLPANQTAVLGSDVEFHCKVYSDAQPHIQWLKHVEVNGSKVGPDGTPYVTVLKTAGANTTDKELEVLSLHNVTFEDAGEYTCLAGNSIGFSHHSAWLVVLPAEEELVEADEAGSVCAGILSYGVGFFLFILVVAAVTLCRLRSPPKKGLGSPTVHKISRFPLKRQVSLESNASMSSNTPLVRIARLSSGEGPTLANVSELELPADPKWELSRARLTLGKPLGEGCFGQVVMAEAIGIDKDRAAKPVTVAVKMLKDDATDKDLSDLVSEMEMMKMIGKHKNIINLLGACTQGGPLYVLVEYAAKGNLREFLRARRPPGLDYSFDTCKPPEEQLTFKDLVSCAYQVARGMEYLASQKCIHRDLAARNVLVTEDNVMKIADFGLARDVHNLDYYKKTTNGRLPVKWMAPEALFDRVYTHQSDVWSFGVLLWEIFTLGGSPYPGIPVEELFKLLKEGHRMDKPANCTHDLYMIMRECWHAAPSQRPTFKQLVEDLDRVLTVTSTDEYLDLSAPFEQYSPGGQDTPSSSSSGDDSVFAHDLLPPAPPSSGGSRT", "test": "FGF-R3 (Y373C) autophosphorylation and expression in NIH3T3 transfectants", "format": "cell-based", "settings": "72 h", "protocol": "FIG. 6. Inhibition of autophosphorylation and expression of FGF-R1 and FGF-R3 receptors in whole cells by Cpd1. A): Swiss3T3 cells were serum starved for 24 h and then treated with Cpd1 at the indicated concentrations, for 18 h. After stimulation with 100 ng/ml FGF for 5 min, whole cell lysates were prepared and subjected to Western blotting with anti-pTyr or anti-FGF-R1. Protein loading by anti-actin blot is shown. B): NIH3T3 transformed by the FGF-R3 mutant Y373C were treated with the indicated concentrations, for 72 h. Cell extracts were immunoprecipitated with anti-FGF-R3 and then subjected to Western blotting with anti p-Tyr or anti-FGF-R3.\nas §1, with “C634W. The MZ-CRC-1 cell line derived from MEN2B-associated MTC characterized by expression of the RET oncogene carrying the mutation M918T.” for “C634W.”\nFor immunoprecipitation experiments, cells were treated with Cpd1 or solvent for the indicated times. […] Protein concentration was determined by the BCA reagent (Pierce). […]"}, "NIH3T3^KITΔ559 cells": {"tested_on": "NIH3T3^KITΔ559 cells", "test": "Reversion of transformed morphologic phenotype of NIH3T3 transfectants expressing KIT (Δ559)", "format": "cell-based, mouse", "settings": "20 μM, 24 h, phase-contrast microscope", "protocol": "FIG. 7. Effects of Cpd1 on cell lines expressing constitutively activated forms of Kit. […] Cells were treated with 20 μM Cpd1 and photographed 24 h later under a phase-contrast microscope (original magnification X 100). B): Inhibition of Kit (Δ559) autophosphorylation and expression in NIH3T3 transfectants. Cells were treated with Cpd 1 at the indicated concentrations, for 72 h. Cell lysates were immunoprecipitated with anti-Kit antibody and subjected to Western blotting with anti-p-Tyr or anti-Kit antibodies. C): Inhibition of expression and autocrine loop-activated autophosphorylation of c-Kit in the SCLC cell line N592. Cells were treated with Cpd 1 at the indicated concentrations, for 24 h. Whole cell lysates were subjected to Western blotting with anti-Kit antibody or with an antibody specifically recognizing the tyrosine phosphorylated/activated Kit (p-Kit).\nas §1, with “C634W. The MZ-CRC-1 cell line derived from MEN2B-associated MTC characterized by expression of the RET oncogene carrying the mutation M918T.” for “C634W.”"}},
  "data": [
    {"smiles": "COc1cc2c(cc1OC)/C(=C\\c1ccc(O)cc1)C(=O)N2", "note": "[Cpd 1, (E)-1,3-dihydro-5,6-dimethoxy-3-[(4-hydroxyphenyl)methylene]-2H-indol-2-one]", "values": [
      {"measurement": "Tyrosine phosphorylation of Ret receptor", "setting": "Ret/MEN2B(M918T)", "value": "dose-dependent inhibition"},
      {"measurement": "Ret receptor expression", "setting": "Ret/MEN2B(M918T); highest concentrations", "value": "reduced expression"},
      {"measurement": "FGF-R3 (Y373C) expression", "setting": "FGF-R3 mutant Y373C", "value": "dose-dependent inhibition"},
      {"measurement": "FGF-R3 (Y373C) tyrosine phosphorylation", "setting": "FGF-R3 mutant Y373C", "value": "dose-dependent inhibition"},
      {"measurement": "Transformed morphologic phenotype", "setting": "NIH3T3^KITΔ559 cells", "value": "Reversion of the transformed morphologic phenotype"}
    ]}
  ]
}
